According to BindingDB's records for doi:10.7270/Q2F769ZM (The Scripps Research Institute Molecular Screening Center, 2007):
Counter-ions that a name gives are not always drawn.

Molecular target: Rho-associated protein kinase 2 (Homo sapiens, UniProt O75116)
Experiment: ROCK2 kinase inhibitor potency, dose response, biochemical, Kinase-Glo luminescence, S6 peptide, 1536-well (AID 644)
[1] = inactive by the depositor's call

Rho-associated protein kinase 2, sequence (O75116 whole entry): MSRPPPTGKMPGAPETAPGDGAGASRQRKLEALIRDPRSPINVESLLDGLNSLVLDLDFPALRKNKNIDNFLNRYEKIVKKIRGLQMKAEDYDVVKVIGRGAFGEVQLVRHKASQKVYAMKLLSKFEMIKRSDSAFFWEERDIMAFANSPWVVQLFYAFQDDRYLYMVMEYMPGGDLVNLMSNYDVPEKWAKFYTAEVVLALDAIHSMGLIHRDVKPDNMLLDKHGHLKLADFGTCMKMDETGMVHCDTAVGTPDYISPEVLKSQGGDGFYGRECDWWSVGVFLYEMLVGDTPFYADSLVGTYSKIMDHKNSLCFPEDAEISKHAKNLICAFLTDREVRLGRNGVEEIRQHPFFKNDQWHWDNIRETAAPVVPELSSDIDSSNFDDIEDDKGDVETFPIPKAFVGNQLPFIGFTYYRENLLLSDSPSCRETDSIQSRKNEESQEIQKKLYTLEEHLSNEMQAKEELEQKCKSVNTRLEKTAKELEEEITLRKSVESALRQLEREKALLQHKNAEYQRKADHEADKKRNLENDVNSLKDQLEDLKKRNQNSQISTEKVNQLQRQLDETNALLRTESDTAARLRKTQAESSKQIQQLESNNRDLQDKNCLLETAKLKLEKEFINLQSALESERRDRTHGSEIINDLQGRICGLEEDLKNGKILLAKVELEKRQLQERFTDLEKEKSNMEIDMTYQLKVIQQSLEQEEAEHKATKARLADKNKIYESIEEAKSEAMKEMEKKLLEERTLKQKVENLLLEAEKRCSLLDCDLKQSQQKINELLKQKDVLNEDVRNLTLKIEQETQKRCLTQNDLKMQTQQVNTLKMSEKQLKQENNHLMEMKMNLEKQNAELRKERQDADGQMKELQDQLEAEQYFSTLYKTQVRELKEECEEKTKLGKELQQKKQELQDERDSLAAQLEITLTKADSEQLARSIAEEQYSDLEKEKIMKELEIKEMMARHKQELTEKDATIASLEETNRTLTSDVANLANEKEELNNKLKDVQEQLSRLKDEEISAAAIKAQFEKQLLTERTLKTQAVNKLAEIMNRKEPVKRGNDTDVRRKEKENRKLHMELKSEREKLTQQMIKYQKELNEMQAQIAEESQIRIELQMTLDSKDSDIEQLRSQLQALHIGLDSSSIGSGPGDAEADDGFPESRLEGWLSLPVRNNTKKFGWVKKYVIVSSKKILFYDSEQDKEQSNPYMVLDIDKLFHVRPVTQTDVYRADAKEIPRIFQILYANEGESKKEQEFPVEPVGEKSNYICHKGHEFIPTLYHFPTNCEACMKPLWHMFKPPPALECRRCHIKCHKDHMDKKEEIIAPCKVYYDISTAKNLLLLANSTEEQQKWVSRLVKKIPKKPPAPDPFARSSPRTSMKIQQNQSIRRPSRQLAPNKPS

SMILES	IC50 [1]	IC50
c1coc(CNc2ncnc3[nH]cnc23)c1	21.4 µM	–
O=C1NC(=O)c2cc(NC(=O)C3CCCCC3)ccc21 [MLS000062910]	–	> 19.9 µM
N#Cc1cccc(NC(=O)NCCc2c[nH]c3ccccc23)c1 [SMR000096894]	16.1 µM	–
CCCCC(=O)Nc1ccc2c(c1)C(=O)NC2=O [MLS000103070]	–	> 19.9 µM
O=c1ccc(=O)n2n1CC(O)C2 [2-hydroxy-2,3-dihydro-1H-pyrazolo[1,2-a]pyridazine-5,8-dione]	–	> 59.6 µM
CC(C)C(NC(=O)C1CCCCC1)C(=O)Nc1ccncc1 (configuration not stated) [MLS000090506]	–	2.3 µM
Cc1cccc(N2CCN(C(=O)c3cn(C)c(=O)c4c3c3ccccc3n4C)CC2)c1C [4-[4-(2,3-dimethylphenyl)piperazin-1-yl]carbonyl-2,9-dimethyl-pyrido[3,4-b]indol-1-one]	–	> 59.6 µM
CC(=O)c1cccc(NC(=O)NCc2cccs2)c1 [1-(3-acetylphenyl)-3-(2-thenyl)urea]	–	> 59.6 µM
c1ccc(OCCCc2nc(-c3ccncc3)no2)cc1 [4-[5-(3-phenoxypropyl)-1,2,4-oxadiazol-3-yl]pyridine]	–	> 59.6 µM
N#Cc1c(N=Cc2ccco2)sc2c1CCCCC2 [2-(2-furanylmethylideneamino)-5,6,7,8-tetrahydro-4H-cyclohepta[b]thiophene-3-carbonitrile]	–	> 19.9 µM
CN(CCO)c1ncnc2nc[nH]c12 [MLS000101269]	–	7.91 µM
Cc1ccc(SCc2nc(-c3ccncc3)no2)cc1 [4-(5-{[(4-methylphenyl)thio]methyl}-1,2,4-oxadiazol-3-yl)pyridine]	42.6 µM	–
CCn1cc(C(=O)Nn2cnnc2)c(=O)c2ccc(C)nc21 [1-ethyl-4-keto-7-methyl-N-(1,2,4-triazol-4-yl)-1,8-naphthyridine-3-carboxamide]	–	> 59.6 µM
c1cc2c(cc1Nc1nc(-c3ccc4c(c3)OCO4)cs1)OCCO2 [4-(1,3-benzodioxol-5-yl)-N-(2,3-dihydro-1,4-benzodioxin-6-yl)-1,3-thiazol-2-amine]	–	> 59.6 µM
c1nc(NC2CCCCC2)c2[nH]cnc2n1 [N-cyclohexyl-7H-purin-6-amine]	15.3 µM	–
Cc1cccc2cc(=O)[nH]c(C)c12 [1,8-dimethyl-2H-isoquinolin-3-one]	–	> 59.6 µM
COC1(OC)N=C(N)C2(C#N)C(c3ccc4c(c3)OCO4)C12C#N (configuration not stated)	47.9 µM	–
CN(C(=O)c1cccc(-n2c(O)c3c(c2O)CC=CC3)c1)C1CCCCC1 [3-[1,3-bis(oxidanylidene)-3a,4,7,7a-tetrahydroisoindol-2-yl]-N-cyclohexyl-N-methyl-benzamide]	–	> 59.6 µM
Cc1cc(Cl)ccc1OCc1nnc(-c2ccc(O)cc2)[nH]1 [MLS000097369]	–	> 19.9 µM
Cc1onc(-c2ccccc2)c1C(=O)N1CCN(C/C=C/c2ccccc2)CC1 [(5-methyl-3-phenyl-1,2-oxazol-4-yl)-[4-[(E)-3-phenylprop-2-enyl]piperazin-1-yl]methanone;hydrochloride]	–	> 59.6 µM
Nc1ccc2[nH]ncc2c1	12.9 µM	–
CCCCCC(=O)Nc1ccc2oc(-c3ccncc3)nc2c1 [MLS000039066]	–	> 19.9 µM
Cn1c(C(=O)N2CCCC(C(=O)N3CCN(C(=O)c4ccco4)CC3)C2)cc2sccc21 (configuration not stated) [MLS000119519]	–	> 59.6 µM
Brc1ccc2[nH]ncc2c1	16.3 µM	–
Nc1ccc2cn[nH]c2c1	–	> 19.9 µM
O=C(Oc1cccc2c(=O)[nH]ccc12)c1ccccc1 [(1-oxo-2H-isoquinolin-5-yl) benzoate]	55.7 µM	–

SMILES	IC50 [1]	IC50
CN(C)c1ccc(-c2ccncc2)cc1 [MLS000105960]	31.8 µM	–
O=C(CSc1nnc(-c2ccncc2)[nH]1)c1ccccc1	–	0.765 µM
CCCCc1c(C)nc(N)[nH]c1=O [2-azanyl-5-butyl-6-methyl-1H-pyrimidin-4-one]	–	> 59.6 µM
CCOC1(OCC)N=C(N)C2(C#N)C(c3ccc(NC(C)=O)cc3)C12C#N (configuration not stated) [MLS000085499]	445 µM	–
O=C(Nc1ccncc1)C1CCCN(S(=O)(=O)c2cccc3cccnc23)C1 (configuration not stated) [MLS000118826]	–	1.73 µM
Cc1cccc(Nc2ncnc3[nH]cnc23)c1 [N-(3-methylphenyl)-7H-purin-6-amine]	13 µM	–
CN1c2cccc3cccc(c23)C1N=O (configuration not stated) [1-Methyl-1H-benzo[cd]indol-2-one oxime]	–	> 19.9 µM
c1nc(N2CCOCC2)c2nc[nH]c2n1 [4-(7H-purin-6-yl)morpholine]	–	7.09 µM
Cc1cc(=O)n(-c2ccccc2)[nH]1 [MLS000069602]	–	> 59.6 µM
COc1ccc2[nH]c(=O)c3c(c2c1)OC(C)(C)C=C3	–	> 19.9 µM
c1ccc2c(-c3ccncc3)c[nH]c2c1	–	0.8 µM
Cc1cc(N2CCOCC2)c2c(N)c(C)cc(C)c2n1 [(2,6,8-trimethyl-4-morpholino-5-quinolyl)amine]	–	> 59.6 µM
Clc1ccccc1-c1nnc2sc(-c3ccncc3)nn12 [3-(2-chlorophenyl)-6-(4-pyridyl)-[1,2,4]triazolo[3,4-b][1,3,4]thiadiazole]	79.1 µM	–
COCCN(CCOC)S(=O)(=O)c1ccc(C(=O)Nc2nc(-c3ccncc3)cs2)cc1 [4-[bis(2-methoxyethyl)sulfamoyl]-N-(4-pyridin-4-yl-1,3-thiazol-2-yl)benzamide]	41.2 µM	–
CCC(=O)Nc1ccc(C(=O)Cn2nc(C(=O)O)c3ccccc3c2=O)cc1 [4-keto-3-[2-keto-2-(4-propionamidophenyl)ethyl]phthalazine-1-carboxylic acid]	11 µM	–
COc1ccc2cc3c(N)c(C(=O)NCc4ccco4)sc3nc2c1 [3-Amino-7-methoxy-thieno[2,3-b]quinoline-2-carboxylic acid (furan-2-ylmethyl)-amide]	–	> 19.9 µM
N#Cc1cc2c(nc1SCc1ccncc1)CCC2 [2-(4-pyridylmethylthio)-1-pyrindan-3-carbonitrile]	20.5 µM	–
O=C(CSc1nc(-c2ccc(F)cc2)c[nH]1)Nc1cccc(O)c1 [2-[5-(4-Fluoro-phenyl)-1H-imidazol-2-ylsulfanyl]-N-(3-hydroxy-phenyl)-acetamide]	23.4 µM	–
Fc1ccccc1Cn1nnc2c(-n3ccnc3)ncnc21 [3-(2-Fluoro-benzyl)-7-imidazol-1-yl-3H-[1,2,3]triazolo[4,5-d]pyrimidine]	–	> 19.9 µM
Nc1ncnc2c1cnn2-c1ccccc1 [1-Phenyl-1H-pyrazolo[3,4-d]pyrimidin-4-ylamine]	20.5 µM	–
COc1ccc(N2CCN(c3ncnc4[nH]cnc34)CC2)cc1 [MLS000101243]	16.5 µM	–
CC(C)[C@H]1C(=O)N2CCC[C@H]2[C@]2(O)O[C@](NC(=O)[C@@H]3C=C4c5cccc6[nH]cc(c56)C[C@H]4N(C)C3)(C(C)C)C(=O)N12 [ERGOCORNINE]	–	> 59.6 µM
Cc1ccc2c(c1)c1c3n2CCN(C(=O)Cn2c(-c4ccccc4)noc2=O)C3CCC1 (configuration not stated) [4-[2-(8-Methyl-1,2,3a,4,5,6-hexahydro-pyrazino[3,2,1-jk]carbazol-3-yl)-2-oxo-ethyl]-3-phenyl-4H-[1,2,4]oxadiazol-5-one]	18.8 µM	–
C1=C(c2ccccc2)CCN(c2[nH]cnc3ncnc2-3)C1 [SMR000017661]	–	> 19.9 µM
COc1ccc2c(Cl)c(C(N)=O)sc2c1 [3-Chloro-6-methoxy-benzo[b]thiophene-2-carboxylic acid amide]	–	6.83 µM
Cc1c(C(=O)Nc2ccc3oc(-c4cccnc4)nc3c2)oc2ccccc12 [3-Methyl-benzofuran-2-carboxylic acid (2-pyridin-3-yl-benzooxazol-5-yl)-amide]	1010 µM	–
